# Key:
# Assay in all cases: viability relative to DMSO control (fraction); higher = less drug effect (more viable cells)
# Settings in all cases: 48 h
# [1] = tested on: primary BL patient cells (S005)
# How it was run: (§1)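 Viability was quantified by CellTiter-Glo luminescence and related to the median of 16 inner DMSO wells. Before that, primary mononuclear tumour cells, fresh or cryopreserved and Ficoll-isolated from blood or bone marrow or prepared from processed lymph node, were plated at 4 × 10^4 cells per well in 384-well plates containing pre-plated compounds at five concentrations, one well each. Plates were incubated in RPMI-1640 with penicillin/streptomycin, L-glutamine and human serum at 37 °C and 5% CO2 for 48 h.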
# [2] = tested on: primary MCL patient cells (S053)
# How it was run: as §1
# [3] = tested on: primary AML patient cells (S012)
# How it was run: as §1
# [4] = tested on: primary AML patient cells (S085)
# How it was run: as §1
# [5] = tested on: primary AML patient cells (S060)
# How it was run: as §1
# [6] = tested on: primary AML patient cells (S011)
# How it was run: as §1
# [7] = tested on: primary AML patient cells (S021)
# How it was run: as §1
# [8] = tested on: primary B-PLL patient cells (S016)
# How it was run: as §1
# [9] = tested on: primary MCL patient cells (S068)
# How it was run: as §1
# [10] = tested on: primary MCL patient cells (S063)
# How it was run: as §1
# [11] = tested on: primary AML patient cells (S056)
# How it was run: as §1
# [12] = tested on: primary AML patient cells (S017)
# How it was run: as §1
# [13] = tested on: primary FL patient cells (S087)
# How it was run: as §1
# [14] = tested on: primary CLL patient cells (S031)
# How it was run: as §1
# [15] = tested on: primary ALL patient cells (S048)
# How it was run: as §1
# [16] = tested on: primary FL patient cells (S022)
# How it was run: as §1
# [17] = tested on: primary ALL patient cells (S088)
# How it was run: as §1
# [18] = tested on: primary AML patient cells (S081)
# How it was run: as §1
# [19] = tested on: primary CLL patient cells (S043)
# How it was run: as §1
# [20] = tested on: primary AML patient cells (S006)
# How it was run: as §1
smiles,measurement,setting,value
Nc1ccc2ncnc(NCCc3ccc(Oc4ccccc4)cc3)c2c1 [EVP4593],viability,[1]; 0.008 µM,1.01
same,viability,[1]; 0.04 µM,0.939
same,viability,[1]; 0.2 µM,0.811
same,viability,[1]; 1 µM,0.73
same,viability,[1]; 5 µM,0.716
same,viability,[2]; 0.008 µM,0.876
same,viability,[2]; 0.04 µM,0.875
same,viability,[2]; 0.2 µM,0.821
same,viability,[2]; 1 µM,0.672
same,viability,[2]; 5 µM,0.642
same,viability,[3]; 0.008 µM,1.05
same,viability,[3]; 0.04 µM,1.03
same,viability,[3]; 0.2 µM,1.07
same,viability,[3]; 1 µM,0.992
same,viability,[3]; 5 µM,1.05
same,viability,[4]; 0.008 µM,2.31
same,viability,[4]; 0.04 µM,0.901
same,viability,[4]; 0.2 µM,1.11
same,viability,[4]; 1 µM,0.666
same,viability,[4]; 5 µM,0.55
same,viability,[5]; 0.008 µM,1.01
same,viability,[5]; 0.04 µM,1
same,viability,[5]; 0.2 µM,0.97
same,viability,[5]; 1 µM,0.961
same,viability,[5]; 5 µM,0.966
same,viability,[6]; 0.008 µM,0.746
same,viability,[6]; 0.04 µM,0.633
same,viability,[6]; 0.2 µM,0.617
same,viability,[6]; 1 µM,0.467
same,viability,[6]; 5 µM,0.459
same,viability,[7]; 0.008 µM,0.769
same,viability,[7]; 0.04 µM,0.659
same,viability,[7]; 0.2 µM,0.572
same,viability,[7]; 1 µM,0.437
same,viability,[7]; 5 µM,0.439
same,viability,[8]; 0.008 µM,0.929
same,viability,[8]; 0.04 µM,0.874
same,viability,[8]; 0.2 µM,0.8
same,viability,[8]; 1 µM,0.716
same,viability,[8]; 5 µM,0.713
same,viability,[9]; 0.008 µM,0.844
same,viability,[9]; 0.04 µM,0.766
same,viability,[9]; 0.2 µM,0.741
same,viability,[9]; 1 µM,0.683
same,viability,[9]; 5 µM,0.676
same,viability,[10]; 0.008 µM,0.934
same,viability,[10]; 0.04 µM,0.945
same,viability,[10]; 0.2 µM,0.924
same,viability,[10]; 1 µM,0.874
same,viability,[10]; 5 µM,0.866
same,viability,[11]; 0.008 µM,0.691
same,viability,[11]; 0.04 µM,0.627
same,viability,[11]; 0.2 µM,0.412
same,viability,[11]; 1 µM,0.313
same,viability,[11]; 5 µM,0.307
same,viability,[12]; 0.008 µM,0.889
same,viability,[12]; 0.04 µM,0.933
same,viability,[12]; 0.2 µM,0.875
same,viability,[12]; 1 µM,0.901
same,viability,[12]; 5 µM,0.795
same,viability,[13]; 0.008 µM,0.933
same,viability,[13]; 0.04 µM,0.915
same,viability,[13]; 0.2 µM,0.862
same,viability,[13]; 1 µM,0.811
same,viability,[13]; 5 µM,0.79
same,viability,[14]; 0.008 µM,0.884
same,viability,[14]; 0.04 µM,0.854
same,viability,[14]; 0.2 µM,0.803
same,viability,[14]; 1 µM,0.686
same,viability,[14]; 5 µM,0.601
same,viability,[15]; 0.008 µM,0.776
same,viability,[15]; 0.04 µM,0.919
same,viability,[15]; 0.2 µM,0.88
same,viability,[15]; 1 µM,0.869
same,viability,[15]; 5 µM,0.676
same,viability,[16]; 0.008 µM,0.911
same,viability,[16]; 0.04 µM,0.871
same,viability,[16]; 0.2 µM,0.805
same,viability,[16]; 1 µM,0.816
same,viability,[16]; 5 µM,0.825
same,viability,[17]; 0.008 µM,0.151
same,viability,[17]; 0.04 µM,0.168
same,viability,[17]; 0.2 µM,0.147
same,viability,[17]; 1 µM,0.108
same,viability,[17]; 5 µM,0.088
same,viability,[18]; 0.008 µM,0.859
same,viability,[18]; 0.04 µM,0.821
same,viability,[18]; 0.2 µM,0.799
same,viability,[18]; 1 µM,0.784
same,viability,[18]; 5 µM,0.78
same,viability,[19]; 0.008 µM,0.794
same,viability,[19]; 0.04 µM,0.794
same,viability,[19]; 0.2 µM,0.774
same,viability,[19]; 1 µM,0.726
same,viability,[19]; 5 µM,0.695
same,viability,[20]; 0.008 µM,0.855
same,viability,[20]; 0.04 µM,0.755
same,viability,[20]; 0.2 µM,0.557
same,viability,[20]; 1 µM,0.362
same,viability,[20]; 5 µM,0.248
Nc1nc(F)nc2c1ncn2[C@@H]1O[C@H](CO)[C@@H](O)[C@@H]1O [Fludarabine],viability,[1]; 0.016 µM,0.972
same,viability,[1]; 0.08 µM,1.18
same,viability,[1]; 0.4 µM,0.943
same,viability,[1]; 2 µM,0.905
same,viability,[1]; 10 µM,1.05
same,viability,[2]; 0.016 µM,1.02
same,viability,[2]; 0.08 µM,0.928
same,viability,[2]; 0.4 µM,0.638
same,viability,[2]; 2 µM,0.238
same,viability,[2]; 10 µM,0.156
same,viability,[3]; 0.016 µM,1.02
same,viability,[3]; 0.08 µM,0.979
same,viability,[3]; 0.4 µM,0.987
same,viability,[3]; 2 µM,0.921
same,viability,[3]; 10 µM,0.753
same,viability,[4]; 0.016 µM,1.02
same,viability,[4]; 0.08 µM,1.05
same,viability,[4]; 0.4 µM,0.561
same,viability,[4]; 2 µM,0.172
same,viability,[4]; 10 µM,0.112
same,viability,[5]; 0.016 µM,1.02
same,viability,[5]; 0.08 µM,1.01
same,viability,[5]; 0.4 µM,1.06
same,viability,[5]; 2 µM,1.03
same,viability,[5]; 10 µM,0.89
same,viability,[6]; 0.016 µM,0.942
same,viability,[6]; 0.08 µM,0.773
same,viability,[6]; 0.4 µM,0.543
same,viability,[6]; 2 µM,0.255
same,viability,[6]; 10 µM,0.0686
same,viability,[7]; 0.016 µM,1.04
same,viability,[7]; 0.08 µM,0.882
same,viability,[7]; 0.4 µM,0.579
same,viability,[7]; 2 µM,0.277
same,viability,[7]; 10 µM,0.183
same,viability,[8]; 0.016 µM,1.08
same,viability,[8]; 0.08 µM,1.01
same,viability,[8]; 0.4 µM,0.929
same,viability,[8]; 2 µM,0.535
same,viability,[8]; 10 µM,0.0968
same,viability,[9]; 0.016 µM,1.01
same,viability,[9]; 0.08 µM,0.961
same,viability,[9]; 0.4 µM,0.804
same,viability,[9]; 2 µM,0.463
same,viability,[9]; 10 µM,0.194
same,viability,[10]; 0.016 µM,1.03
same,viability,[10]; 0.08 µM,1
same,viability,[10]; 0.4 µM,0.983
same,viability,[10]; 2 µM,0.845
same,viability,[10]; 10 µM,0.196
same,viability,[11]; 0.016 µM,1.3
same,viability,[11]; 0.08 µM,0.88
same,viability,[11]; 0.4 µM,0.725
same,viability,[11]; 2 µM,0.208
same,viability,[11]; 10 µM,0.0833
same,viability,[12]; 0.016 µM,1.05
same,viability,[12]; 0.08 µM,1.03
same,viability,[12]; 0.4 µM,1.07
same,viability,[12]; 2 µM,0.854
same,viability,[12]; 10 µM,0.534
same,viability,[13]; 0.016 µM,1
same,viability,[13]; 0.08 µM,0.979
same,viability,[13]; 0.4 µM,0.871
same,viability,[13]; 2 µM,0.661
same,viability,[13]; 10 µM,0.463
same,viability,[14]; 0.016 µM,1.05
same,viability,[14]; 0.08 µM,1.02
same,viability,[14]; 0.4 µM,0.779
same,viability,[14]; 2 µM,0.276
same,viability,[14]; 10 µM,0.0672
same,viability,[15]; 0.016 µM,0.991
same,viability,[15]; 0.08 µM,0.881
same,viability,[15]; 0.4 µM,0.337
same,viability,[15]; 2 µM,0.0558
same,viability,[15]; 10 µM,0.028
same,viability,[16]; 0.016 µM,1.09
same,viability,[16]; 0.08 µM,1.01
same,viability,[16]; 0.4 µM,0.916
same,viability,[16]; 2 µM,0.757
same,viability,[16]; 10 µM,0.504
same,viability,[17]; 0.016 µM,1
same,viability,[17]; 0.08 µM,0.975
same,viability,[17]; 0.4 µM,0.715
same,viability,[17]; 2 µM,0.283
same,viability,[17]; 10 µM,0.2
same,viability,[18]; 0.016 µM,1.1
same,viability,[18]; 0.08 µM,1.05
same,viability,[18]; 0.4 µM,1.1
same,viability,[18]; 2 µM,1.02
same,viability,[18]; 10 µM,0.89
same,viability,[19]; 0.016 µM,1.02
same,viability,[19]; 0.08 µM,0.982
same,viability,[19]; 0.4 µM,0.882
same,viability,[19]; 2 µM,0.614
same,viability,[19]; 10 µM,0.236
same,viability,[20]; 0.016 µM,1.02
same,viability,[20]; 0.08 µM,0.929
same,viability,[20]; 0.4 µM,0.529
same,viability,[20]; 2 µM,0.115
same,viability,[20]; 10 µM,0.0573
